Paper PMC9973354 (mBio, 2022)
In brackets after ≈: the same amount, converted by molar mass.

Experiments:
Assay type in all cases: cell-based, Pseudomonas aeruginosa
[1] = system: PA14 ΔfpvA ΔfpvB pHERD20T-fpvA; test: MIC assay, ΔfpvA ΔfpvB complemented with fpvA; details: complementation with fpvA, arabinose induction
Protocol: (§1) The ΔfpvA ΔfpvB mutant was complemented in trans with pHERD20T-fpvA or pHERD20T-fpvB. pHERD20T is an arabinose-inducible vector with expression driven by the PBAD promoter under the control of AraC ([30]).
(§2) MIC assays were conducted as previously described ([13], [14]). Overnight cultures were grown in LB from a glycerol stock at 37°C with shaking (200 rpm). Subcultures in 10:90 (1:100 dilution) were cultured for 4 h. Cells were adjusted to an optical density at 600 nm (OD600) of 0.1/500 in 10:90. All compounds were serially diluted 2-fold in dimethyl sulfoxide (DMSO) or H2O at 75× the final concentration. Plates were sealed to prevent evaporation and incubated at 37°C overnight in a shaking incubator (200 rpm). The next day, the OD600 was determined with a plate reader (Thermo Scientific) and normalized to percent of growth of the vehicle control after subtracting the OD600 from blank media.

[2] = system: PA14; test: Growth curves with DSX and siderophores, WT PA14; details: DSX 64 μg/mL or pyoverdine 10 μg/mL alone, 20 h, 10:90
Protocol: (§3) Supplementary file : FIG S1 (A) FpvB is expressed in WT PA14 and the ΔfpvA mutant grown in 10:90. PilF was used as a loading control for outer membrane proteins. (B) FpvA is expressed from WT PA14 grown in 10:90. […] PilF was used as a loading control for outer membrane proteins. (C) Growth curves of PA14 and mutants with DSX and different siderophores in 10:90. PA14, ΔfpvA, ΔfpvB, ΔfpvA ΔfpvB, and ΔpvdA ΔpchA strain growth. Blue indicates control, purple indicates treatment with 64 μg/mL DSX, yellow indicates treatment with 10 μg/mL pyoverdine (PA14), and red indicates treatment with 64 μg/mL DSX and 10 μg/mL pyoverdine (PA14). (D) ΔfpvA, ΔfpvA ΔfpvB, and ΔpvdA ΔpchA strain growth. Blue indicates control, purple indicates treatment with 64 μg/mL DSX, grey indicates treatment with 10 μg/mL ferrichrome, and red indicates treatment with 64 μg/mL DSX and 10 μg/mL ferrichrome. (E) ΔfpvA, ΔfpvA ΔfpvB, and ΔpvdA ΔpchA strain growth. […] Download FIG S1, EPS file, 8.5 MB.
(§4) Another explanation for the susceptibility of the ΔfpvA mutant to DSX is that the mutant produces less pyoverdine compared to WT cells due to loss of the signaling cascade that controls siderophore production in response to its binding to FpvA ([25]). To differentiate whether the fpvA mutant was susceptible to DSX because of reduced pyoverdine production or because FpvB was a poor pyoverdine transporter, we treated the WT, ΔfpvA, ΔfpvB, and ΔfpvA ΔfpvB strains with DSX (64 μg/mL) without and with exogenous pyoverdine (10 μg/mL) for 20 h (Fig. 1; see also Fig. S1C). Growth of the ΔfpvA mutant should be restored if there are functional pyoverdine transporters. […] The growth of the ΔfpvA ΔfpvB mutant was inhibited by DSX and pyoverdine, confirming previously published results ([18]).

[3] = system: PA14 ΔfpvA ΔfpvB mutant; test: Growth curves with DSX and siderophores, ΔfpvA ΔfpvB; details: DSX 64 μg/mL, pyoverdine 10 μg/mL, 20 h
Protocol: as §3, §4
(§5) As a control, a ΔpvdA ΔpchA mutant unable to make pyoverdine and pyochelin was also tested. Growth of this mutant was inhibited by DSX.

[4] = system: PA14 ΔfpvA ΔfpvB mutant; test: MIC assay, ΔfpvA ΔfpvB mutant; details: Pseudomonas aeruginosa, PA14
Protocol: as §2

[5] = system: PA14 ΔfpvA ΔfpvB pHERD20T-fpvB; test: MIC assay, ΔfpvA ΔfpvB complemented with fpvB; details: complementation with fpvB, arabinose induction
Protocol: as §1, §2

[6] = system: PA14 ΔfpvA ΔfpvB ΔfiuA ΔfoxA quadruple mutant; test: Growth phenotypes of deletion mutants, quadruple mutant; details: 64 μg/mL DSX, 10 μg/mL siderophores, 10:90
Source text: (§6) PA14, ΔfpvA, ΔfpvB, and ΔfpvA ΔfpvB strains treated with TS (A) and DSX (B) in 10:90. Green indicates growth, and white indicates no growth. Growth is expressed as percent of control. The PA14 ΔfpvA ΔfpvB strain complemented with pHERD20T, fpvA, or fpvB treated with TS (C) and DSX (D) in 10:90. […] All experiments are averaged from three independent biological replicates. Blue indicates growth and white indicates no growth. (H) Summary of growth phenotypes of WT PA14 and combinations of single, double, triple, and quadruple deletion mutants in fpvA, fpvB, fiuA, and foxA. […] Green indicates growth, whereas no growth is indicated in white. […] Representative plates are shown.
(§7) If there were no transporters for a particular siderophore, the mutant would fail to grow due to iron restriction.

[7] = system: PA14 ΔfpvA ΔfpvB pHERD20T-fpvA T660C; test: MIC assay, ΔfpvA ΔfpvB expressing FpvA T660C; details: 10:90 + 2% arabinose
Source text: FpvA T660C was used previously to measure pyoverdine-Fe^3+ binding affinity ([32]). However, this technique has not been applied to FpvB. A high-confidence structural model of FpvB was generated using AlphaFold2 ([33], [34]) and aligned with the structure of FpvA (PDB accession number 2O5P) to identify a residue suitable for labeling, with the assumption that FpvA and FpvB undergo similar conformational changes upon ferrisiderophore binding (see Fig. S3A through C in the supplemental material). Based on this analysis, FpvB R648 was mutated to Cys. FpvA T660C and FpvB R648C were each expressed in trans in the ΔfpvA ΔfpvB mutant. […] We could also detect expression by fluorescence microscopy with peripheral labeling consistent with expression in the outer membrane (Fig. 3B). Labeling was undetectable in empty vector and WT controls (see Fig. S4A in the supplemental material).
Supplementary file : FIG S3 Overlay of FpvA and FpvB showing residues mutated to cysteine for labeling with maleimide dyes. FpvA (PDB accession number 2O5P) was superimposed with the AlphaFold2 model of FpvB. FpvA is shown in beige and FpvB in blue. […]
MIC assays were conducted as previously described ([13], [14]). […] The next day, the OD600 was determined with a plate reader (Thermo Scientific) and normalized to percent of growth of the vehicle control after subtracting the OD600 from blank media.

[8] = system: PA14 ΔfpvA mutant; test: Growth curves with DSX and siderophores, ΔfpvA; details: DSX 64 μg/mL or pyoverdine 10 μg/mL alone, 20 h, 10:90
Protocol: as §3, §4, §5

[9] = system: PA14 ΔfpvA mutant; test: MIC assay, ΔfpvA mutant; details: Pseudomonas aeruginosa, PA14
Protocol: as §2

[10] = system: PA14 ΔpvdA ΔpchA mutant; test: Growth curves with DSX and siderophores, ΔpvdA ΔpchA; details: DSX 64 μg/mL, 20 h
Protocol: as §3, §5

[11] = system: PA14 ΔfpvA mutants; test: Growth phenotypes of deletion mutants, ΔfpvA mutants; details: 64 μg/mL DSX, 10:90
Source text: as §6, §7

[12] = system: PA14 ΔfpvB mutant; test: Growth curves with DSX and siderophores, ΔfpvB; details: DSX 64 μg/mL or pyoverdine 10 μg/mL alone, 20 h, 10:90
Protocol: as §3, §4

[13] = system: FpvB; test: Western blot of FLAG-tagged FpvB expression after compound treatment; details: WT PA14 fpvB-FLAG; 10 μg/mL siderophores, 64 μg/mL DSX, 10:90
[14] = system: PA14 ΔfpvA ΔfpvB pHERD20T-fpvA; test: Checkerboard assay TS and siderophores, FpvA expressed; details: 10:90 + 2% arabinose
Source text: We investigated this hypothesis by treating the ΔfpvA ΔfpvB mutant complemented with fpvA or fpvB with TS and pyoverdine-Fe^3+. If pyoverdine competes with TS for the same binding site in the transporter, a reduction in TS susceptibility would be expected, as competition would decrease entry of the antibiotic into the cell. TS susceptibility decreased >8-fold with increasing concentrations of pyoverdine-Fe^3+ when FpvA was expressed (see Fig. S2A in the supplemental material).
Supplementary file : FIG S2 Checkerboard assays of the PA14 ΔfpvA ΔfpvB strain complemented with fpvA and fpvB in trans with TS and siderophores. […] Checkerboards of the PA14 ΔfpvA ΔfpvB pHERD20T-fpvB strain with TS and enterobactin (G), ferrioxamine E (H), and arthrobactin (I). Results are averaged from three independent biological replicates. Cells in the assay were grown in 10:90 + 2% arabinose. Download FIG S2, EPS file, 2.2 MB.
Checkerboards (8 rows by 8 columns) were conducted as previously described in a 96-well plate (Nunc) ([13], [14]). TS at 75× the final concentration dissolved in DMSO was added in columns from bottom to top in increasing concentrations. Siderophores at 75× the final concentration dissolved in DSMO were added from in rows from left to right in increasing concentrations. Four columns were used for vehicle controls (DMSO) and sterile controls. […] Plates were sealed to prevent evaporation and incubated at 37°C overnight in a shaking incubator (200 rpm). The next day, the OD600 was determined with a plate reader (Thermo Scientific) and normalized to percent of growth of the vehicle control (DMSO) after subtracting the OD600 from blank media.

[15] = system: PA14 mutant combinations that include ΔfoxA; test: Growth phenotypes of deletion mutants, ΔfoxA combinations; details: any mutant combination with ΔfoxA; 10 μg/mL ferrioxamine E, 10:90
Source text: as §6, §7

Row | SMILES | growth with DSX [1] | growth versus control [2] | growth versus control [3] | MIC [4] [µg/mL] | growth with DSX [5] | growth in the presence of compound [6] | growth with DSX [7] | growth versus control [8] | MIC [9] [µg/mL] | growth versus control [10] | growth in the presence of compound [11] | growth versus control [12] | stimulation of FpvB expression [13] | effect of siderophore on TS susceptibility [14] | growth in the presence of compound [15]
1 | O=C(O)c1ccc(-n2nc(-c3ccccc3O)nc2-c2ccccc2O)cc1 [DSX, deferasirox] | restored growth | growth was similar between the control and DSX conditions | inhibited | 8 (≈ 21.4 µM) | could not restore growth | failed to grow | restored growth with DSX | inhibited growth | 8 (≈ 21.4 µM) | inhibited | unable to grow | growth was similar between the control and DSX conditions | None of the compounds stimulated expression |  | 
2 | O=C1CCC(=O)N(O)CCCCCNC(=O)CCC(=O)N(O)CCCCCNC(=O)CCC(=O)N(O)CCCCCN1 [ferrioxamine E] |  |  |  |  |  | failed to grow |  |  |  |  |  |  |  | None of those siderophores reduced TS susceptibility | inhibited
